Test results as given in patent publication US20040014215A1, “Synchronised arabidopsis cell suspensions and uses thereof” (priority 2000, published 2004).

Key:
Assay in all cases: Northern expression analysis after aphidicolin synchronisation of MM1 (maximum signal = 100%)
Format in all cases: cell-based, Arabidopsis thaliana
CDK-b2 = test system: CDK-b2
Method: (§1) was analysed following the expression level of known cell cycle regulated genes. Synchronisation was performed as described in Example 2A, with the exception that two 7-day old cultures of the weekly sub-cultured cell suspension (210 ml each) were combined. 40 ml of combined culture was transferred into 200 ml of fresh MSS-medium in each of 10 separate flasks. After incubation for 24 hrs under conditions as described in Example 1, in the presence of 4.16 μg/ml aphidicolin, cells from 5 pooled flasks were washed through a nylon net (mesh size 47 μm) and washed with 2 litre MSS medium and shaken vigorously to remove the aphidicolin. Cells were transferred into a 50 ml plastic tube, washed again with MSS medium and centrifuged at 2500 rpm for 1 min (1075 rcf). Cells were resuspended and combined with the cells from the other 5 flasks similarly washed in a total volume of 300 ml fresh MSS-medium. 30 ml of this cell suspension was then added to 200 ml fresh MSS-medium in each of 10 separate flasks.
(§2) 1) 25 ml for Northern blot (transferred into 50 ml plastic tube, centrifuged at 2500 rpm for 1 min, the supernatant discarded, and the cell pellet shock-frozen in liquid nitrogen before storing in −80° C. freezer)
(§3) Samples were collected at the time point indicated (time of removal of aphidicolin equals time point 0 hrs) and were analysed for expression of the following genes by Northern blot:
(§4) For each probe the maximum hybridisation signal obtained was defined as 100%.

CycB1 = test system: CycB1
Method: as §1, §2, §3, §4

CycD2 = test system: CycD2
Method: as §1, §2, §3, §4

CycD3 = test system: CycD3
Method: as §1, §2, §3, §4

[1] = 0 hrs after aphidicolin removal
[2] = 2 hrs after aphidicolin removal
[3] = 4 hrs after aphidicolin removal
[4] = 6 hrs after aphidicolin removal
[5] = 8 hrs after aphidicolin removal
[6] = 10 hrs after aphidicolin removal
[7] = 12 hrs after aphidicolin removal
[8] = 14 hrs after aphidicolin removal
[9] = 16 hrs after aphidicolin removal
[10] = 18 hrs after aphidicolin removal
[11] = 20 hrs after aphidicolin removal
[12] = 22 hrs after aphidicolin removal
[13] = 24 hrs after aphidicolin removal
[14] = 26 hrs after aphidicolin removal
[15] = 28 hrs after aphidicolin removal
[16] = 30 hrs after aphidicolin removal

Compound: C[C@@]1(CO)[C@H](O)CC[C@@]2(C)[C@H]1CC[C@H]1C[C@@H]3C[C@@]12CC[C@]3(O)CO [aphidicolin]
- CDK-b2 % (CDK-b2; [1]): 7.78%
- CDK-b2 Band intensity (CDK-b2; [1]): 1084
- CDK-b2 % (CDK-b2; [2]): 12.90%
- CDK-b2 Band intensity (CDK-b2; [2]): 1796
- CDK-b2 % (CDK-b2; [3]): 8.22%
- CDK-b2 Band intensity (CDK-b2; [3]): 1144
- CDK-b2 % (CDK-b2; [4]): 12.09%
- CDK-b2 Band intensity (CDK-b2; [4]): 1683
- CDK-b2 % (CDK-b2; [5]): 28.47%
- CDK-b2 Band intensity (CDK-b2; [5]): 3963
- CDK-b2 % (CDK-b2; [6]): 49.90%
- CDK-b2 Band intensity (CDK-b2; [6]): 6947
- CDK-b2 % (CDK-b2; [7]): 87.45%
- CDK-b2 Band intensity (CDK-b2; [7]): 12174
- CDK-b2 % (CDK-b2; [8]): 100%
- CDK-b2 Band intensity (CDK-b2; [8]): 13921
- CDK-b2 % (CDK-b2; [9]): 55.84%
- CDK-b2 Band intensity (CDK-b2; [9]): 7774
- CDK-b2 % (CDK-b2; [10]): 67.57%
- CDK-b2 Band intensity (CDK-b2; [10]): 9407
- CDK-b2 % (CDK-b2; [11]): 47.80%
- CDK-b2 Band intensity (CDK-b2; [11]): 6654
- CDK-b2 % (CDK-b2; [12]): 22.78%
- CDK-b2 Band intensity (CDK-b2; [12]): 3172
- CDK-b2 % (CDK-b2; [13]): 13.73%
- CDK-b2 Band intensity (CDK-b2; [13]): 1912
- CDK-b2 % (CDK-b2; [14]): 22.86%
- CDK-b2 Band intensity (CDK-b2; [14]): 3183
- CDK-b2 % (CDK-b2; [15]): 18.55%
- CDK-b2 Band intensity (CDK-b2; [15]): 2583
- CDK-b2 % (CDK-b2; [16]): 22.19%
- CDK-b2 Band intensity (CDK-b2; [16]): 3089
- cycB1 % (CycB1; [1]): 33.18%
- cycB1 Band intensity (CycB1; [1]): 636
- cycB1 % (CycB1; [2]): 62.69%
- cycB1 Band intensity (CycB1; [2]): 1201
- cycB1 % (CycB1; [3]): 47.09%
- cycB1 Band intensity (CycB1; [3]): 902
- cycB1 % (CycB1; [4]): 59.67%
- cycB1 Band intensity (CycB1; [4]): 1143
- cycB1 % (CycB1; [5]): 69.42%
- cycB1 Band intensity (CycB1; [5]): 1330
- cycB1 % (CycB1; [6]): 83.86%
- cycB1 Band intensity (CycB1; [6]): 1607
- cycB1 % (CycB1; [7]): 89.57%
- cycB1 Band intensity (CycB1; [7]): 1717
- cycB1 % (CycB1; [8]): 100.0%
- cycB1 Band intensity (CycB1; [8]): 1917
- cycB1 % (CycB1; [9]): 76.51%
- cycB1 Band intensity (CycB1; [9]): 1466
- cycB1 % (CycB1; [10]): 90.81%
- cycB1 Band intensity (CycB1; [10]): 1740
- cycB1 % (CycB1; [11]): 77.04%
- cycB1 Band intensity (CycB1; [11]): 1476
- cycB1 % (CycB1; [12]): 45.09%
- cycB1 Band intensity (CycB1; [12]): 864
- cycB1 % (CycB1; [13]): 48.70%
- cycB1 Band intensity (CycB1; [13]): 933
- cycB1 % (CycB1; [14]): 49.18%
- cycB1 Band intensity (CycB1; [14]): 942
- cycB1 % (CycB1; [15]): 52.79%
- cycB1 Band intensity (CycB1; [15]): 1012
- CycD2 % (CycD2; [1]): 11.06%
- CycD2 Band intensity (CycD2; [1]): 588
- CycD2 % (CycD2; [2]): 18.49%
- CycD2 Band intensity (CycD2; [2]): 984
- CycD2 % (CycD2; [3]): 14.53%
- CycD2 Band intensity (CycD2; [3]): 773
- CycD2 % (CycD2; [4]): 20.73%
- CycD2 Band intensity (CycD2; [4]): 1103
- CycD2 % (CycD2; [5]): 21.64%
- CycD2 Band intensity (CycD2; [5]): 1151
- CycD2 % (CycD2; [6]): 32.02%
- CycD2 Band intensity (CycD2; [6]): 1704
- CycD2 % (CycD2; [7]): 51.04%
- CycD2 Band intensity (CycD2; [7]): 2716
- CycD2 % (CycD2; [8]): 77.14%
- CycD2 Band intensity (CycD2; [8]): 4105
- CycD2 % (CycD2; [9]): 66.51%
- CycD2 Band intensity (CycD2; [9]): 3539
- CycD2 % (CycD2; [10]): 100.0%
- CycD2 Band intensity (CycD2; [10]): 5322
- CycD2 % (CycD2; [11]): 83.89%
- CycD2 Band intensity (CycD2; [11]): 4464
- CycD2 % (CycD2; [12]): 46.62%
- CycD2 Band intensity (CycD2; [12]): 2481
- CycD2 % (CycD2; [13]): 64.44%
- CycD2 Band intensity (CycD2; [13]): 3429
- CycD2 % (CycD2; [14]): 68.56%
- CycD2 Band intensity (CycD2; [14]): 3648
- CycD2 % (CycD2; [15]): 69.98%
- CycD2 Band intensity (CycD2; [15]): 3724
- CycD2 % (CycD2; [16]): 62.66%
- CycD2 Band intensity (CycD2; [16]): 3334
- CycD3 % (CycD3; [1]): 12.10%
- CycD3 Band intensity (CycD3; [1]): 465
- CycD3 % (CycD3; [2]): 14.46%
- CycD3 Band intensity (CycD3; [2]): 555
- CycD3 % (CycD3; [3]): 43.55%
- CycD3 Band intensity (CycD3; [3]): 1674
- CycD3 % (CycD3; [4]): 76.31%
- CycD3 Band intensity (CycD3; [4]): 2933
- CycD3 % (CycD3; [5]): 72.80%
- CycD3 Band intensity (CycD3; [5]): 2798
- CycD3 % (CycD3; [6]): 77.13%
- CycD3 Band intensity (CycD3; [6]): 2964
- CycD3 % (CycD3; [7]): 85.55%
- CycD3 Band intensity (CycD3; [7]): 3288
- CycD3 % (CycD3; [8]): 100.0%
- CycD3 Band intensity (CycD3; [8]): 3844
- CycD3 % (CycD3; [9]): 79.41%
- CycD3 Band intensity (CycD3; [9]): 3052
- CycD3 % (CycD3; [10]): 79.09%
- CycD3 Band intensity (CycD3; [10]): 3040
- CycD3 % (CycD3; [11]): 94.06%
- CycD3 Band intensity (CycD3; [11]): 3615
- CycD3 % (CycD3; [12]): 59.40%
- CycD3 Band intensity (CycD3; [12]): 2283
- CycD3 % (CycD3; [13]): 26.53%
- CycD3 Band intensity (CycD3; [13]): 1019
- CycD3 % (CycD3; [14]): 51.71%
- CycD3 Band intensity (CycD3; [14]): 1987
- CycD3 % (CycD3; [15]): 64.80%
- CycD3 Band intensity (CycD3; [15]): 2490
- CycD3 % (CycD3; [16]): 70.93%
- CycD3 Band intensity (CycD3; [16]): 2726
